The source of these data is the OligoGym collection.

HELM strings list units from the 5' end as sugar, base in round brackets, then linkage (d deoxyribose, r ribose, m 2'-O-methyl, p phosphodiester). Strings are as the collection lists them; they lack the last nucleoside at the 3' end of the tested compound. [moe] = 2'-O-(2-methoxyethyl) (MOE); [sp] = phosphorothioate linkage; [m5C] = 5-methylcytosine

The data set has as its target SCN2A. Nature of the data set: mouse, dose not given. As to conditions: ASO.
In turn, “RNA1{[moe]([m5C])[sp].[moe]([m5C])p.[moe](A)p.[moe]([m5C])p.[moe](G)p.d(A)[sp].d([m5C])[sp].d(A)[sp].d(T)[sp].d(A)[sp].d(T)[sp].d(T)[sp].d(T)[sp].d(T)[sp].d(T)[sp].[moe]([m5C])p.[moe](T)p.[moe](A)[sp].[moe]([m5C])}$$$$ (last 3' nucleoside missing)” registered a 3 h FOB score of 0 score 0-7.
Then “RNA1{[moe](T)[sp].[moe]([m5C])p.[moe](A)p.[moe](T)p.[moe](G)p.[moe]([m5C])p.d(A)[sp].d(T)[sp].d(A)[sp].d(A)[sp].d(T)[sp].d([m5C])[sp].d([m5C])[sp].d([m5C])[sp].d(A)[sp].d(T)[sp].[moe](T)p.[moe](A)[sp].[moe](T)}$$$$ (last 3' nucleoside missing)”, with 0 score 0-7.
The same measure for “RNA1{[moe](A)[sp].[moe](G)p.[moe]([m5C])p.[moe](T)p.[moe]([m5C])p.d(T)[sp].d(T)[sp].d(T)[sp].d(T)[sp].d(T)[sp].d([m5C])[sp].d(A)[sp].d([m5C])[sp].d(T)[sp].d(T)[sp].[moe](T)p.[moe](T)p.[moe](G)[sp].[moe](G)}$$$$ (last 3' nucleoside missing)”: 0.67 score 0-7; for “RNA1{[moe]([m5C])[sp].[moe](A)p.[moe]([m5C])p.[moe](G)p.[moe](A)p.d([m5C])[sp].d(A)[sp].d(T)[sp].d(A)[sp].d(T)[sp].d(T)[sp].d(T)[sp].d(T)[sp].d(T)[sp].d([m5C])[sp].[moe](T)p.[moe](A)p.[moe]([m5C])[sp].[moe](A)}$$$$ (last 3' nucleoside missing)”: 0 score 0-7; for “RNA1{[moe](G)[sp].[moe]([m5C])p.[moe](A)p.[moe](T)p.d(A)[sp].d(T)[sp].d(T)[sp].d([m5C])[sp].d(T)[sp].d(A)[sp].d(A)[sp].d([m5C])[sp].d(A)[sp].d(T)[sp].[moe](G)p.[moe](G)p.[moe](T)p.[moe]([m5C])[sp].[moe](T)}$$$$ (last 3' nucleoside missing)”: 1.67 score 0-7.
Then “RNA1{[moe](G)[sp].[moe]([m5C])p.[moe]([m5C])p.[moe](T)p.[moe](A)p.d([m5C])[sp].d(T)[sp].d(T)[sp].d([m5C])[sp].d([m5C])[sp].d(T)[sp].d(T)[sp].d([m5C])[sp].d([m5C])[sp].d(A)[sp].[moe](A)p.[moe](G)p.[moe](G)[sp].[moe](A)}$$$$ (last 3' nucleoside missing)”, with 0.33 score 0-7; and “RNA1{[moe](T)[sp].[moe](G)p.[moe]([m5C])p.[moe](A)p.[moe](T)p.[moe](G)p.d(T)[sp].d(A)[sp].d(A)[sp].d([m5C])[sp].d([m5C])[sp].d(T)[sp].d(T)[sp].d(T)[sp].d(A)[sp].d(T)[sp].[moe](A)p.[moe]([m5C])[sp].[moe](A)}$$$$ (last 3' nucleoside missing)”, with 0 score 0-7; and “RNA1{[moe]([m5C])[sp].[moe](A)p.[moe]([m5C])p.[moe](G)p.d(A)[sp].d([m5C])[sp].d(A)[sp].d(T)[sp].d(A)[sp].d(T)[sp].d(T)[sp].d(T)[sp].d(T)[sp].d(T)[sp].[moe]([m5C])p.[moe](T)p.[moe](A)p.[moe]([m5C])[sp].[moe](A)}$$$$ (last 3' nucleoside missing)”, with 0 score 0-7.
With “RNA1{[moe](A)[sp].[moe](T)p.[moe](T)p.[moe]([m5C])p.[moe](T)p.d(G)[sp].d([m5C])[sp].d(A)[sp].d(T)[sp].d(G)[sp].d(T)[sp].d(A)[sp].d(A)[sp].d([m5C])[sp].d([m5C])[sp].[moe](T)p.[moe](T)p.[moe](T)[sp].[moe](A)}$$$$ (last 3' nucleoside missing)”, the 3 h FOB score was 3 score 0-7.
The same measure for “RNA1{[moe](G)[sp].[moe]([m5C])p.[moe](A)p.[moe](T)p.d(G)[sp].d(T)[sp].d(T)[sp].d(T)[sp].d(A)[sp].d(T)[sp].d([m5C])[sp].d(T)[sp].d(T)[sp].d(A)[sp].[moe](G)p.[moe](T)p.[moe](T)p.[moe]([m5C])[sp].[moe](T)}$$$$ (last 3' nucleoside missing)”: 0 score 0-7.
